Experimental data: patent US20230381139A1, “METHODS OF TREATING AND/OR PREVENTING ALZHEIMER’S DISEASE WITH R-CARVEDILOL” (priority 2020, published 2023)

Tested on: 5×FAD+/− hippocampal CA1 neurons
Test: In vivo two-photon Ca2+ imaging of CA1 neurons (neuronal hyperactivity) in 5×FAD+/− mice
Parameters: species or system mouse
Procedure: Adult genetically engineered mice, 5×FAD^+/− (Oakley et al., 2006), RyR2-E4872Q^+/− (EQ^+/−) (Chen et al., 2014), 5×FAD^+/−/RyR2-E4872Q^+/− (5×FAD^+/−/EQ^+/−), and wildtype (WT) littermates of both sexes were used. R-carvedilol (R-CV) (at doses of 0.8, 1.6 or 3.2 mg/kg/day), racemic carvedilol (3.2 mg/kg/day), and vehicle control (DMSO) were delivered to 5×FAD^+/− mice in drinking water for one month, starting at different ages before (2-3 months old) or after (3-4 months old) the occurrence of AD pathologies (Oakley et al., 2006). To assess the effects of genetically and pharmacologically limiting RyR2 open time on the prevention and rescue of AD deficits in different stages (early, moderate, and late) of AD progression, animals at different ages (from 2-15 months) were used. As reported (Oakley et al., 2006), there was an age-dependence of AD progression in the 5×FAD^+/− mice. No sex-dependent differences in AD progression in these mice was observed. For 2-photon Ca^2+ imaging experiments, 5×FAD, RyR2 WT, and RyR2 mutant mice were cross-bred with the heterozygous Thy1-GCaMP6f transgenic mice (Chen et al., 2012; Chen et al., 2013) (GP5.17, JAX 025393) to express the GCaMP6f Ca^2+ sensing probe (driven by the Thy1 promotor) in hippocampal neurons in each of the genotypes used.
To determine whether limiting RyR2 open time can suppress AD-associated neuronal hyperactivity in vivo, double heterozygous 5×FAD^+/−/E4872Q^+/− mice were crossed with the heterozygous Thy-1 GCaMP6f^+/− transgenic mice (GP5.17, JAX 025393) to introduce the GCaMP6f^+/− transgene into each of the four genotypes (driven by the Thy1 promotor). In vivo two-photon imaging of GCaMP6f-expressing CA1 pyramidal neurons in each of the four genotypes to monitor spontaneous Ca^2+ transients was performed.
Neuronal hyperactivity has been reported in anesthetized AD model mice in vivo using two-photon Ca^2 + imaging (Busche et al., 2008; Busche et al., 2012; Lerdkrai et al., 2018; Busche et al., 2019). To facilitate comparison, the same approach described originally by Busche et al. and used by others in the field (Busche et al., 2012; Busche et al., 2008; Delekate et al., 2014; Eichhoff and Garaschuk, 2011; Kim et al., 2016; Takano et al., 2007; Zott et al., 2019) was employed. Craniotomy was performed according to the protocol reported previously (Busche, 2018; Busche et al., 2012; Busche et al., 2008) with some modifications. […] The body temperature was monitored and controlled at 36.5-37.5° C. during the entire surgery and imaging procedure. […] Besides the core body temperature, the respiratory and pulse rate were continuously monitored (MouseOx plus. STARR Life Science Corp.). […]

[1] = 3.2 mg/kg/day for one month, started at 2-3 or 3-4 months of age (both ages), vs vehicle pre-treated 5×FAD+/− mice

COc1ccccc1OCCNC[C@@H](O)COc1cccc2[nH]c3ccccc3c12 [R-carvedilol, R-(+)-carvedilol]
fraction of hyperactive neurons [1]: significantly lower
mean frequency of spontaneous Ca2+ transients [1]: significantly lower
overall spontaneous neuronal activity (cumulative probability analysis) [1]: significantly lower
neuronal hyperactivity of 5×FAD+/− hippocampal CA1 neurons in vivo (3.2 mg/kg/day in drinking water for one month, started at 2-3 months (before AD pathology) or 3-4 months (after) of age, vs DMSO vehicle): prevented and rescued
